Assay results published in PubChem BioAssay AID1963424 (Molecular Pharmacology Branch, DTP, NCI, 2024).
pIC50: −log10 of the molar value.

Test system: 327498-153-R-J2-PDC complex spheroid growth, % test/control
Experiment: Anticancer human tumor 327498-153-R-J2-PDC patient-derived uterine carcinosarcoma cell line growth inhibition [Asc]
Settings: for pIC50: curve of first compound; for viability, T/C: stronger effect = lower value
Protocol: Multicellular complex tumor spheroid response to apoptosis pathway targeting inhibitors Alrizomadlin, Pelcitoclax, and Dasminapant in combination with a variety of drugs and investigational agents in selected tumor cell lines
The MDM2 inhibitor alrizomadlin, the Bcl-2/Bcl-xL inhibitor pelcitoclax, and the IAPs inhibitor dasminapant were evaluated both individually and in combination with standard of care and investigational anticancer small molecules within a complex spheroid model of solid tumors. . Complex spheroids include a stromal component modeled by human endothelial cells (HUVEC) and fibroblasts modeled by human mesenchymal stem cells (MSCs). The concentration ranges selected for each drug and investigational agent were based upon clinically achievable concentrations if the clinical Cmax of the agent was known.
Compounds. The drugs and investigational agents: alrizomadlin (APG-115; NSC831270), pelcitoclax (APG-1252; NSC835773), dasminapant (APG-1387;NSC834197), TAK-243 (NSC785004), copanlisib (NSC809693), olaparib (NSC753686), talazoparib (NSC767125), cobimetinib (NSC 768068), eltanexor (KPT-8602, NSC 794443), abemaciclib (NSC 768073), sotorasib (NSC818433), adagrasib (NSC 831453), MRTX-1133 (NSC 836407), Iadademestat (ORY1001, NSC 806812), and RMC-4630 (NSC839698), were obtained from the NCI Developmental Therapeutics Program Chemical Repository. The FDA-approved anticancer drug set is available from the Developmental Therapeutics Program at https://dtp.cancer.gov/organization/dscb/obtaining/available plates.htm. […] The stock solutions were prepared in dimethyl sulfoxide (DMSO, Sigma-Aldrich, St. Louis, MO, cat. D2650) at 800-fold the tested concentration and stored at -70 degrees C prior to their use. All drugs and investigational agents were tested over a range starting from a high concentration at or near the clinical Cmax and decreasing in half-log increments. If the clinical Cmax for an agent had not been determined, the highest concentration tested was 10 microM.
The patient-derived cancer (PDC) cell lines include five colon adenocarcinomas: 186277-243-T-J2-PDC, 616215-338-R-J1-PDC, 439559-082-T-J2-PDC, 463943-066-T-J2-PDC, and 519858-162-T-J1-PDC; three pancreatic carcinomas: 323965-272-R-J2-PDC, 521955-158-R6-J3-PDC, and 521955-158-R2-J5-PDC; two uterine sarcomas: 327498-152-R-J2-PDC and 993429-296-R-J1-PDC; two rhabdomyosarcomas: 755483-174-R-J1-PDC and 772245-204-R-J1-PDC; two soft tissue sarcomas: 126254-015-R-J1-PDC and 494315-158-R-J1-PDC; two malignant fibrous histiocytomas: 317291-083-R-J1-PDC and 596521-263-R-J1-PDC; two breast carcinomas: 171881-019-R-J1-PDC and 885512-296-R-J2-PDC; and one ovarian carcinoma: 6556581-035-R-J-PDC were obtained from the NCI PDMR, (https://pdmr.cancer.gov). The established cell lines HSSY-2 synovial sarcoma (RRID:CVCL 8719), SYO-1 synovial sarcoma (RRID:CVCL_7146), MPNST malignant peripheral neural sheath tumor were obtained from the Sloan Kettering Institute. The following established cell lines were purchased from the American Type Culture Collection (ATCC, Manassas, VA), Sor the received from the NCI repository:, PANC-1 pancreatic carcinoma (CRL-1469, RRID:CVCL_0480), OVCAR-5 ovarian carcinoma (RRID:CVCL_1628), OVCAR-8 ovarian carcinoma (RRID:CVCL_1629), , MCF-7 breast carcinoma (CRL-12584, RRID:CVCL_0031), MDA-MB-231 breast carcinoma (CRL-12532, RRID:CVCL_0062), NCI-H1876 small cell lung carcinoma (CRL-5902, RRID:CVCL_1503), NCI-H510A small cell lung carcinoma (HTB-184, RRID:CVCL_1565), NCI-H1417 (CRL-5869, RRID:CVCL_1469), and NCI-H196 small cell lung carcinoma (CRL-5823, RRID:CVCL_1509). Dr. Peter Houghton (Greehey Children's Cancer Research Institute, University of Texas Health Science Center, San Antonio, TX) provided Rh-18 rhabdomyosarcoma (RRID:CVCL_1659). Pooled donor human umbilical vein endothelial cells (HUVEC, Lonza, cat. CC-2519) and human mesenchymal stem cells (hMSC, Lonza, cat. PT-2501) were purchased from Lonza (Walkersville, MD).
Cell Culture. […]
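Also: spheroids exposed to compound for 7 days after 3 days of growth.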
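For viability, T/C in this document: 100% = DMSO vehicle control wells.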

## C#Cc1c(F)ccc2cc(O)cc(-c3ncc4c(N5CC6CCC(C5)N6)nc(OCC56CCCN5CC(F)C6)nc4c3F)c12 (stereo not given) + CCN1C(C(=O)NC23CCC(C(=O)O)(CC2)CC3)C(c2cccc(Cl)c2F)C2(C(=O)Nc3cc(Cl)ccc32)C12CCCCC2
Second compound 0.03 µM
  pIC50: 5.53
Second compound 0.0949 µM
  pIC50: 6.15
Second compound 0.3 µM
  pIC50: > 7.50
Second compound 0.949 µM
  pIC50: > 7.50
Second compound 3 µM
  pIC50: > 7.50
Second compound 0.03 µM, first compound 0.0316 µM
  viability, T/C: 87.3%
Second compound 0.03 µM, first compound 0.1 µM
  viability, T/C: 94.4%
Second compound 0.03 µM, first compound 0.316 µM
  viability, T/C: 83.2%
Second compound 0.03 µM, first compound 1 µM
  viability, T/C: 61.2%
Second compound 0.03 µM, first compound 3.16 µM
  viability, T/C: 54%
Second compound 0.03 µM, first compound 10 µM
  viability, T/C: 39.4%
Second compound 0.0949 µM, first compound 0.0316 µM
  viability, T/C: 77.4%
Second compound 0.0949 µM, first compound 0.1 µM
  viability, T/C: 74.7%
Second compound 0.0949 µM, first compound 0.316 µM
  viability, T/C: 61.6%
Second compound 0.0949 µM, first compound 1 µM
  viability, T/C: 43%
Second compound 0.0949 µM, first compound 3.16 µM
  viability, T/C: 37%
Second compound 0.0949 µM, first compound 10 µM
  viability, T/C: 26.8%
Second compound 0.3 µM, first compound 0.0316 µM
  viability, T/C: 33.5%
Second compound 0.3 µM, first compound 0.1 µM
  viability, T/C: 36.1%
Second compound 0.3 µM, first compound 0.316 µM
  viability, T/C: 24.3%
Second compound 0.3 µM, first compound 1 µM
  viability, T/C: 15.7%
Second compound 0.3 µM, first compound 3.16 µM
  viability, T/C: 14.4%
Second compound 0.3 µM, first compound 10 µM
  viability, T/C: 7.22%
Second compound 0.949 µM, first compound 0.0316 µM
  viability, T/C: 10.2%
Second compound 0.949 µM, first compound 0.1 µM
  viability, T/C: 9.47%
Second compound 0.949 µM, first compound 0.316 µM
  viability, T/C: 4.8%
Second compound 0.949 µM, first compound 1 µM
  viability, T/C: 4.74%
Second compound 0.949 µM, first compound 3.16 µM
  viability, T/C: 4.43%
Second compound 0.949 µM, first compound 10 µM
  viability, T/C: 1.84%
Second compound 3 µM, first compound 0.0316 µM
  viability, T/C: 2.16%
Second compound 3 µM, first compound 0.1 µM
  viability, T/C: 1.97%
Second compound 3 µM, first compound 0.316 µM
  viability, T/C: 2.08%
Second compound 3 µM, first compound 1 µM
  viability, T/C: 1.55%
Second compound 3 µM, first compound 3.16 µM
  viability, T/C: 1.14%
Second compound 3 µM, first compound 10 µM
  viability, T/C: 0.73%
